Consider 2 molecules from paper PMC4291487, “Stress-induced ceramide generation and apoptosis via the phosphorylation and activation of nSMase1 by JNK signaling” (Cell Death and Differentiation, 2014).

Type in all cases: biochemical
Assay [1] deals with T1, nSMase1 (wild-type), zebrafish (Danio rerio, UniProt F1QUD7).
T1 construct: gene smpd2a; zebrafish cDNA
T1 sequence (F1QUD7 1-421): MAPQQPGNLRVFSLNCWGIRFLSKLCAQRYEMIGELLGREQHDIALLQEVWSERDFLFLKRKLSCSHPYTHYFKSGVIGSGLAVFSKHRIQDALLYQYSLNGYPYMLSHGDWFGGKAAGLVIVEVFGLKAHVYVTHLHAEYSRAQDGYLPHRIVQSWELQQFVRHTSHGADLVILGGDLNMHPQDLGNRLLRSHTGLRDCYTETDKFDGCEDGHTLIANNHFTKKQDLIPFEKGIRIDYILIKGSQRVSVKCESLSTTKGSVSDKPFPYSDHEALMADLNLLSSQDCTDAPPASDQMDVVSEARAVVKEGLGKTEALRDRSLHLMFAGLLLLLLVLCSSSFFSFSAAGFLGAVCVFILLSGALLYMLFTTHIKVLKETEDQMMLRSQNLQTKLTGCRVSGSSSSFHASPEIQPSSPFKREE
The assay is described as follows: C6-NBD-ceramide release assay. The settings on record: 37 °C; basal enzyme, not JNK-treated.

Assay [2] addresses T2, nSMase1 (wild-type), zebrafish (Danio rerio, UniProt F1QUD7, S270A).
T2 construct: gene smpd2a; zebrafish cDNA
T2 sequence (F1QUD7 1-421 S270A): T1 sequence (F1QUD7 1-421) with S270A
The assay is described as follows: C6-NBD-ceramide release assay. As to conditions: 37 °C; basal enzyme, not JNK-treated.

In a further assay the target is T3, mouse JNK1 (Mus musculus, UniProt Q91Y86).
T3 construct: gene Mapk8; commercial recombinant protein (Cell Signaling Technology)
T3 sequence (Q91Y86 whole entry): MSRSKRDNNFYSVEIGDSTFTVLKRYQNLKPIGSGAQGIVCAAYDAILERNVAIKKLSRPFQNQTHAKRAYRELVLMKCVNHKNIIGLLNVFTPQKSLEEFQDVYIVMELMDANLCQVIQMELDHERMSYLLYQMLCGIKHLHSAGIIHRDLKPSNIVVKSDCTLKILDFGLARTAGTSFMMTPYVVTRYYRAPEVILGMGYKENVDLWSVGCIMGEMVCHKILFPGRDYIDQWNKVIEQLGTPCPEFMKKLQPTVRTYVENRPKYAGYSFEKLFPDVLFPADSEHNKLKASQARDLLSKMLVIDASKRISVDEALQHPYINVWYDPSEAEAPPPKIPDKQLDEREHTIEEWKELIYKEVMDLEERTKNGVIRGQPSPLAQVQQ
The settings on record: 10 μM SP600125; 0.25 mM ATP, 10 mM MgCl2, pH 7.4, 30 °C, 30 min.

Molecules are shown by their SMILES. Numbering of substitutions follows the chain as printed.

In the case of `CCCCCCCCCCCCC/C=C/[C@@H](O)[C@H](COP(=O)([O-])OCC[N+](C)(C)C)NC(=O)CCCCCNc1ccc([N+](=O)[O-])c2nonc12` [C6-NBD-sphingomyelin], the C6-NBD-ceramide release assay result in assay [1] and in assay [2] was “nSMase activities of the recombinant proteins were determined using C6-NBD-sphingomyelin” throughout.
Regarding `O=C1c2ccccc2-c2n[nH]c3cccc1c23` [SP600125, Anthra[1,9-cd]pyrazol-6(2H)-one], the “phosphorylation inhibition at 10 μM” value on mouse JNK1 is on record as “wild-type pulsed with SP600125 were not phosphorylated”.
